Data set [1] deals with cloned HTLV-I genomic sequence. Description: PCR amplification of HTLV-I with citraconylated Taq DNA polymerase, agarose gel analysis. The format is biochemical. Conditions: 30 copies HTLV-I template; pre-reaction incubation 90° C. for 10 minutes; enzyme dilutions 1/10-1/80. As to the method: Amplifications were carried out using 1/20, 1/40, and 1/80 dilutions of the 240× modified Taq DNA polymerase described in Example 2. Dilutions were made in a buffer consisting of 20 mM Tris-HCl, pH 8.0 (at room temperature), 100 mM KCl, 0.1 mM EDTA (ethylenediaminetetraacetic acid), 1 mM DTT (dithiothreitol), 50% glycerol, 0.5% Tween 20, 0.5% Nonidet P40 (AmpliTaq®storage buffer, Perkin Elmer, Norwalk, Conn.). For comparison, amplifications also were carried out using 1/10, 1/20, 1/40, and 1/80 dilutions of unmodified Taq DNA polymerase.
A cloned HTLV-I genomic sequence was amplified using primers SK432 and SK111. The primer sequences are provided in U.S. Pat. No. 5,418,149, incorporated herein by reference. The PCR was carried out in a 100 μl reaction volume under the following reaction conditions.
30 copies of HTLV-I DNA template
(§1) 200 μM dATP, dCTP, and dGTP
0.5 μl of citraconylated Taq DNA polymerase solution
(§2) 1 unit of UNG (Perkin Elmer, Norwalk, Conn.) […]
The amplified products were analyzed by 4% agarose gel electrophoresis using a 1× TBE (0.089M Tris, 0.089M boric acid, 0.0025M disodium EDTA) running buffer. Electrophoresis was carried out at 100 volts for approximately 2 hours. Ethidium bromide (0.5 μg/ml) was added following electrophoresis to stain any DNA present. The gel was destained in 1× TBE and the ethidium bromide-stained bands of DNA were visualized using UV irradiation. […]

For data set [2], the system named is HIV-1 genomic sequence. The experiment in a line: PCR amplification of HIV-1 with citraconylated DNA polymerases, agarose gel analysis. The data set is classed as biochemical. Conditions: 100 copies HIV-1 template; pre-reaction incubation 95° C. for 12 minutes; enzyme dilutions 1/10-1/80. As to the method:
Amplifications were carried out using dilutions of modified DNA polymerases. Dilutions were made in a buffer consisting of 20 mM Tris-HCl, pH 8.0 (at room temperature), 100 mM KCl,0.1 mM EDTA (ethylenediaminetetraacetic acid), 1 mM DTT (dithiothreitol), 50% glycerol, 0.5% Tween 20, 0.5% Nonidet P40 (AmpliTaq® storage buffer, Perkin Elmer, Norwalk, Conn.).
An HIV-1 genomic sequence was amplified using primers SK145 and SK431 (Perkin Elmer, Norwalk, Conn.). The PCR was carried out in a 100 μl reaction volume under the following reaction conditions.
100 copies of HIV-1 DNA template
as §1
0.5 μl of DNA polymerase solution
as §2
The pre-reaction incubation step also serves as the initial denaturation step. An initial denaturation step is routinely used in a typical amplification reaction to insure complete denaturation of the double-stranded target. Each cycle of the PCR begins with a denaturation step of 94° C. for 1 minute. Thus, immediately following the initial pre-reaction incubation carried out at 95° C. for 12 minutes, the reaction mixture is incubated at 94° C. for 1 minute during the denaturation step of the first cycle.
The amplified products were analyzed by agarose gel electrophoresis (100 ml of 3% NuSieve and 0.5% SeaChem) using a 1× TBE (0.089M Tris, 0.089M boric acid, 0.0025M disodium EDTA) running buffer. Electrophoresis was carried out at 100 volts for approximately 1 hour. Ethidium bromide (0.5 μg/ml) was added following electrophoresis to stain any DNA present. The gel was destained in TBE and the ethidium bromide-stained bands of DNA were visualized using UV irradiation.
Dilutions (1/10, 1/20, 1/40, and 1/80) of the citraconylated DNA polymerases described in Example 5 and the 240× citriconylated Taq DNA polymerase described in Example 2 were used in amplifications of HIV-1 nucleic acid and the amplified products were anaylzed by agarose gel electrophoresis. For comparison, amplifications were carried out using dilutions of unmodified Taq DNA polymerase. […]

Data set [3] can be described thus: Storage stability of inactivated enzyme. The format is physicochemical. Conditions: stored at 25° C.
Data set [4] has as its system HIV-1 genomic sequence. The experiment in a line: Effect of pre-reaction incubation time on PCR product (HIV-1 model system). Conditions: for amplified product without a pre-reaction incubation (FIG. 4): 0 minutes pre-reaction incubation, compared with extended incubation. The format is biochemical. The protocol:
Amplifications were carried out using the citraconylated and cis-aconitylated Taq DNA polymerases prepared as described above. For each set of amplification conditions, Taq DNA polymerases modified using a 80-fold and a 160-fold molar excess of citaconic anhydride, and a 90-fold and a 180-fold molar excess of cis-aconitic anhydride were used. Amplifications were carried out using the HIV-1 model system described in Example 6, above, except that the initial pre-reaction incubation was varied. For each enzyme preparation, amplifications were carried out using pre-reaction incubations of 12, 6, 3, and 0 minutes.
As noted above, the pre-reaction incubation step also serves as the initial denaturation step. Each cycle of a PCR begins with a denaturation step. Immediately following the initial pre-reaction incubation carried out at 95° C. for 12, 6, 3, or 0 minutes, each reaction mixture is incubated at 94° C. for 1 minute during the denaturation step of the first cycle. Thus, even when no pre-reaction incubation was used, enzyme activity is recovered during the denaturation step of the initial cycles.
The amplification products were analyzed by agarose gel electrophoresis. The band corresponding to the amplified target sequence is indicated. Bands appearing on the gel other than the band which corresponds to the amplified target sequence correspond to the products generated by the non-specific amplification of non-target sequences.

Data set [5] concerns HIV-1 genomic sequence. Description: Effect of amplification cycle number on PCR product (HIV-1 model system). The format is biochemical. Conditions: no pre-reaction incubation; 39, 43, 48, 60 cycles. As to the method:
Amplifications were carried out using the Taq DNA polymerases modified using a 80-fold and a 160-fold molar excess of citraconic anhydride, and a 90-fold and a 180-fold molar excess of cis-aconitic anhydride. The Amplifications were carried out essentially as described above using the HIV-1 model system described in Example 6, except that the initial pre-reaction incubation and cycle numbers were varied. For each enzyme preparation, amplifications were carried out using the following conditions: […]
The amplification products were analyzed by agarose gel electrophoresis.

As for “citraconylated Taq DNA polymerase: Taq DNA polymerase modified using citraconic anhydride; 240× in Examples 4 and 6, 80× and 160× in Examples 9 and 10”, the “amplified target band versus non-specific amplification products (FIG. 2)” value in data set [1] is “significant increase in the intensity of the band corresponding to the amplified target sequence, and a significant decrease in the intensity of the bands corresponding to non-specific amplification products”. Besides, in the data set with HIV-1 genomic sequence [2], the “amplified target band versus non-specific amplification products (FIG. 3)” value is reported as “intense band corresponding to the amplified target sequence for all but the 1/80 dilution”. Further, in data set [3], the “storage stability: time enzyme remains inactivated” value was “remain inactivated for at least four weeks”. Moreover, the “amplified product without a pre-reaction incubation (FIG. 4)” value with HIV-1 genomic sequence [4] is given as “significantly less amplified product”. Moreover, the “pre-reaction incubation required to obtain the maximum amount of amplified product” value in the data set on HIV-1 genomic sequence [4] (95° C. pre-reaction incubation) is given as “at least 3 minutes”.
With “cis-aconitylated DNA polymerase: Taq DNA polymerase modified using cis-aconitic anhydride (90× and 180× preparations)”, the “amplified product without a pre-reaction incubation (FIG. 4)” value with HIV-1 genomic sequence [4] is recorded as “nearly as much product as the amplifications using an extended pre-reaction incubations”. For the same molecule, in the data set with HIV-1 genomic sequence [4] (pre-reaction incubations of 12, 6, 3 and 0 minutes at 95° C.), the “amplified product band over pre-reaction incubation times (FIG. 4)” value was “all pre-reaction incubation times resulted in a strong band corresponding to amplified product”. The “effect of increasing the amplification cycle number on amplified product (FIG. 5)” value in the data set on HIV-1 genomic sequence [5] is given as “The effect was smallest”.
“unmodified Taq DNA polymerase: Taq DNA polymerase (AmpliTaq®, Perkin Elmer), unmodified comparison enzyme [reference compound]”: in data set [1], the “amplified target band versus non-specific amplification products (FIG. 2)” value was “predominantly non-specific amplification product”. Moreover, the “amplified target band versus non-specific amplification products (FIG. 3)” value in the data set on HIV-1 genomic sequence [2] is listed as “predominantly non-specific amplification product”.

B1: citraconylated rTth: citraconylated thermostable DNA polymerase from Thermus thermophilus (protein, UniProt P52028 1-834, looked up)
DNA polymerase I, thermostable: MEAMLPLFEPKGRVLLVDGHHLAYRTFFALKGLTTSRGEPVQAVYGFAKSLLKALKEDGYKAVFVVFDAKAPSFRHEAYEAYKAGRAPTPEDFPRQLALIKELVDLLGFTRLEVPGYEADDVLATLAKKAEKEGYEVRILTADRDLYQLVSDRVAVLHPEGHLITPEWLWEKYGLRPEQWVDFRALVGDPSDNLPGVKGIGEKTALKLLKEWGSLENLLKNLDRVKPENVREKIKAHLEDLRLSLELSRVRTDLPLEVDLAQGREPDREGLRAFLERLEFGSLLHEFGLLEAPAPLEEAPWPPPEGAFVGFVLSRPEPMWAELKALAACRDGRVHRAADPLAGLKDLKEVRGLLAKDLAVLASREGLDLVPGDDPMLLAYLLDPSNTTPEGVARRYGGEWTEDAAHRALLSERLHRNLLKRLEGEEKLLWLYHEVEKPLSRVLAHMEATGVRLDVAYLQALSLELAEEIRRLEEEVFRLAGHPFNLNSRDQLERVLFDELRLPALGKTQKTGKRSTSAAVLEALREAHPIVEKILQHRELTKLKNTYVDPLPSLVHPRTGRLHTRFNQTATATGRLSSSDPNLQNIPVRTPLGQRIRRAFVAEAGWALVALDYSQIELRVLAHLSGDENLIRVFQEGKDIHTQTASWMFGVPPEAVDPLMRRAAKTVNFGVLYGMSAHRLSQELAIPYEEAVAFIERYFQSFPKVRAWIEKTLEEGRKRGYVETLFGRRRYVPDLNARVKSVREAAERMAFNMPVQGTAADLMKLAMVKLFPRLREMGARMLLQVHDELLLEAPQARAEEVAALAKEAMEKAYPLAVPLEVEVGMGEDWLSAKG
modifications: citraconylated
As to B1, in the data set on HIV-1 genomic sequence [2], the “amplified target band versus non-specific amplification products (FIG. 3)” value was “greater production of specific amplification product than seen in amplifications using unmodified Taq DNA polymerase”.

Values taken from US5677152A, “Nucleic acid amplification using a reersibly inactivated thermostable enzyme” (Roche Molecular Systems, Inc., priority 1996, dated 1997).
